The source made the active and inactive calls. The calls are words filed in the database; no cut-off is given here.
Legend:
Human alphaherpesvirus 1 [1] = test: Antiviral activity against HSV-1 infected in African green monkey Vero cells assessed as reduction in viral growth by measuring relative cell viability at 20 uM incubated for 72 hrs by MTT assay; type: functional
[2] = Fluorescence property of compound in cyclohexane assessed as fluorescence quantum yield in presence of fluorescein by spectrophotometric analysis; type: physicochemical
[3] = Fluorescence property of compound in H2O assessed as fluorescence quantum yield in presence of fluorescein by spectrophotometric analysis; type: physicochemical
[4] = Fluorescence property of compound in H2O assessed as maximum emission wavelength in presence of fluorescein by spectrophotometric analysis; type: physicochemical
[5] = Drug accumulation in African green monkey Vero cells assessed as subcellular localization in endoplasmic reticulum at 20 uM incubated for 1 to 24 hr by Me-THP-Naph staining based confocal scanning laser microscopic analysis; type: ADME, cell-based; conditions: chlorocebus sabaeus, time 1-24 hrs
[6] = Fluorescence property of compound in crystal assessed as maximum emission wavelength in presence of fluorescein by spectrophotometric analysis; type: physicochemical
[7] = Fluorescence property of compound in cyclohexane assessed as maximum emission wavelength in presence of fluorescein by spectrophotometric analysis; type: physicochemical
[8] = Fluorescence property of compound in crystal assessed as fluorescence quantum yield in presence of fluorescein by spectrophotometric analysis; type: physicochemical
Human alphaherpesvirus 1 [9] = test: Antiviral activity against HSV-1 infected in African green monkey Vero cells assessed as reduction in viral growth incubated for 72 hrs by MTT assay; type: functional, organism-based; conditions: Human alphaherpesvirus 1, Vero
Human alphaherpesvirus 2 [10] = test: Antiviral activity against ACV-resistant HSV-2 infected in African green monkey Vero cells assessed as reduction in viral growth incubated for 72 hrs by MTT assay; type: functional, organism-based; conditions: Human alphaherpesvirus 2, Vero
Human alphaherpesvirus 2 [11] = test: Antiviral activity against HSV-2 infected in African green monkey Vero cells assessed as reduction in viral growth incubated for 72 hrs by MTT assay; type: functional, organism-based; conditions: Human alphaherpesvirus 2, Vero
Human alphaherpesvirus 1 [12] = test: Antiviral activity against HSV-1 infected in African green monkey Vero cells assessed as downregulation of viral gD protein expression at 5 to 20 uM by Western blotting analysis; type: functional, organism-based; conditions: dose 5-20 µM
Human alphaherpesvirus 1 [13] = test: Antiviral activity against HSV-1 infected in African green monkey Vero cells assessed as downregulation of viral gD mRNA expression at 5 to 20 uM by RT-qPCR analysis; type: functional, organism-based; conditions: dose 5-20 µM
Human alphaherpesvirus 1 [14] = test: Antiviral activity against HSV-1 infected in African green monkey Vero cells assessed as downregulation of viral VP16 mRNA expression at 20 uM incubated under co-treatment condition for 1 hr by RT-qPCR analysis; type: functional, organism-based
Human alphaherpesvirus 1 [15] = test: Antiviral activity against HSV-1 infected in African green monkey Vero cells assessed as downregulation of viral gD mRNA expression incubated for 48 hrs by RT-qPCR analysis; type: functional, organism-based
Human alphaherpesvirus 2 [16] = test: Antiviral activity against HSV-2 infected in African green monkey Vero cells assessed as protection of cellular morphology incubated for 24 hrs CPE based microscopic analysis; type: functional, organism-based
HEK-293T = test: Cytotoxicity against human HEK293T cells at 5 to 80 uM incubated for 48 hrs by MTT assay; type: toxicity, cell-based; conditions: dose 5-80 µM
Human alphaherpesvirus 1 [17] = test: Antiviral activity against HSV-1 infected in African green monkey Vero cells assessed as downregulation of viral gD mRNA expression at 20 uM pre-infected with virus followed by compound treatment by RT-qPCR analysis; type: functional, organism-based
Human alphaherpesvirus 1 [18] = test: Antiviral activity against HSV-1 infected in African green monkey Vero cells assessed as downregulation of viral gD mRNA expression at 20 uM incubated under co-treatment condition for 1 hr by RT-qPCR analysis; type: functional, organism-based
Human alphaherpesvirus 1 [19] = test: Antiviral activity against HSV-1 infected in African green monkey Vero cells assessed as downregulation of viral gD protein expression at 10 uM incubated for 48 hrs by Western blotting analysis; type: functional, organism-based
Human alphaherpesvirus 1 [20] = test: Antiviral activity against HSV-1 infected in African green monkey Vero cells assessed as downregulation of viral ICP8 protein expression at 20 uM measured after 2 hrs by Western blotting analysis; type: functional, organism-based
Human alphaherpesvirus 1 [21] = test: Antiviral activity against HSV-1 infected in African green monkey Vero cells assessed as downregulation of viral gD mRNA expression at 20 uM incubated under co-plus post treatment condition for 1 hr by RT-qPCR analysis; type: functional, organism-based
[22] = Cytotoxicity against human HEK293T cells assessed as cell viability at 80 uM incubated for 48 hrs by MTT assay relative to control; type: toxicity, cell-based, HEK-293T; conditions: read-out: Activity
[23] = Cytotoxicity against human HEK293T cells incubated for 48 hrs by MTT assay; type: toxicity, cell-based, HEK-293T
Human alphaherpesvirus 1 [24] = test: Antiviral activity against HSV-1 infected in African green monkey Vero cells assessed as downregulation of viral gD protein expression at 20 uM pre-treated with compound for 1 hr followed by viral infection by Western blotting analysis; type: functional, organism-based
Human alphaherpesvirus 1 [25] = test: Antiviral activity against HSV-1 infected in African green monkey Vero cells assessed as downregulation of viral gD mRNA expression at 20 uM pre-treated with compound for 1 hr followed by viral infection by RT-qPCR analysis; type: functional, organism-based
Human alphaherpesvirus 1 [26] = test: Antiviral activity against HSV-1 infected in African green monkey Vero cells assessed as reduction in viral plaque formation at 20 uM pre-treated with compound for 36 to 48 hrs followed by viral infection by crystal violet staining based assay; type: functional, organism-based; conditions: time 36-48 hrs
Human alphaherpesvirus 2 [27] = test: Antiviral activity against ACV-resistant HSV-2 infected in African green monkey Vero cells assessed as downregulation of viral gD protein expression at 20 uM incubated for 48 hrs by Western blotting analysis; type: functional, organism-based
Human alphaherpesvirus 1 [28] = test: Antiviral activity against HSV-1 infected in African green monkey Vero cells assessed as protection of cellular morphology incubated for 24 hrs by CPE based microscopic analysis; type: functional, organism-based
Human alphaherpesvirus 1 [29] = test: Antiviral activity against HSV-1 infected in African green monkey Vero cells assessed as downregulation of viral VP16 mRNA expression at 20 uM pre-infected with virus followed by compound treatment by RT-qPCR analysis; type: functional, organism-based
Human alphaherpesvirus 1 [30] = test: Antiviral activity against HSV-1 infected in African green monkey Vero cells assessed as downregulation of viral ICP8 protein expression at 20 uM pre-treated with compound for 1 hr followed by viral infection by Western blotting analysis; type: functional, organism-based
Human alphaherpesvirus 1 [31] = test: Antiviral activity against HSV-1 infected in African green monkey Vero cells assessed as downregulation of viral VP16 mRNA expression incubated for 48 hrs by RT-qPCR analysis; type: functional, organism-based
Human alphaherpesvirus 1 [32] = test: Antiviral activity against HSV-1 infected in African green monkey Vero cells assessed as downregulation of viral VP16 mRNA expression at 20 uM incubated under co-plus post treatment condition for 1 hr by RT-qPCR analysis; type: functional, organism-based
Human alphaherpesvirus 1 [33] = test: Antiviral activity against HSV-1 infected in African green monkey Vero cells assessed as downregulation of viral gD protein expression at 20 uM measured after 2 hrs by Western blotting analysis; type: functional, organism-based
Human alphaherpesvirus 1 [34] = test: Antiviral activity against HSV-1 infected in African green monkey Vero cells assessed as downregulation of viral VP16 mRNA expression at 20 uM pre-treated with compound for 1 hr followed by viral infection by RT-qPCR analysis; type: functional, organism-based
Human alphaherpesvirus 1 [35] = test: Antiviral activity against HSV-1 infected in African green monkey Vero cells assessed as reduction in viral growth by measuring relative cell viability at 5 uM incubated for 72 hrs by MTT assay; type: functional

For `CN1c2c(C#N)c3c(c(C#N)c2N(C)C2CCCCC21)OCCN3` (racemic), the Activity (Human alphaherpesvirus 1 [1]) was 1%.
Compound `CN1c2c(F)c(C#N)c(C#N)c(F)c2N(C)C2CCCCC21` (racemic) has an Activity (Human alphaherpesvirus 1 [1]) of 3%.
Compound `CN1c2c(C#N)c(F)c(N3CCOCC3)c(C#N)c2N(C)C2CCCCC21` (racemic) has an Activity (Human alphaherpesvirus 1 [1]) of 8%.
`CN1CCOc2c(C#N)c3c(c(C#N)c21)N(C)C1CCCCC1N3C` (racemic) showed an Activity (Human alphaherpesvirus 1 [1]) of 4%.
In the case of `CN1c2c(F)c(C#N)c(F)c(C#N)c2N(C)C2CCCCC21` (racemic), the Activity (Human alphaherpesvirus 1 [1]) is reported as 0%.
`CN1c2c(C#N)c(F)c(F)c(C#N)c2N(C)[C@@H]2CCCC[C@H]21` gave an Activity [2] of 90.3%, an Activity [3] of 57.1% and an Activity [4] of 555 nm. For the same compound, the Drug uptake [5] was “Active”, the Activity [6] was 560 nm and the Activity [7] was 515 nm. The Activity (Human alphaherpesvirus 1 [1]) was 8% and the Activity [8] was 57.3%.
`CN(C)c1c(F)c(C#N)c2c(c1C#N)N(C)C1CCCCC1N2C` (racemic) gave an Activity (Human alphaherpesvirus 1 [1]) of 5%.
In the case of `CN1c2c(C#N)c3c(c(C#N)c2N(C)C2CCCCC21)OCCO3` (racemic), the Activity (Human alphaherpesvirus 1 [1]) is reported as 0%.
`CN1c2c(C#N)c(F)c(N3CCCCC3)c(C#N)c2N(C)C2CCCCC21` (racemic) gave an Activity (Human alphaherpesvirus 1 [1]) of 6%.
`CN1c2c(C#N)c(F)c(F)c(C#N)c2N(C)[C@H]2CCCC[C@@H]21` gave an EC50 (Human alphaherpesvirus 1 [9]) of 4.1 µM, an EC50 (Human alphaherpesvirus 2 [10]) of 7.9 µM and an EC50 (Human alphaherpesvirus 2 [11]) of 5.8 µM. The Activity [2] was 92.3%, the Activity [3] was 59.1% and the Activity [4] was 555 nm. The Drug uptake [5] was “Active”, the Activity [6] was 560 nm and the Activity (Human alphaherpesvirus 1 [12]) was “Active”. The Activity [7] was 515 nm, the Activity (Human alphaherpesvirus 1 [13]) was “Active” and the Activity (Human alphaherpesvirus 1 [1]) was 40%. It also gave an Activity [8] of 56.9%.
`CN1c2c(C#N)c(F)c(N3CCCC3)c(C#N)c2N(C)C2CCCCC21` (racemic) gave an Activity (Human alphaherpesvirus 1 [1]) of 9%.
With `CN1c2c(C#N)c(F)c(F)c(C#N)c2N(C)C2CCCCC21` (racemic) the Activity (Human alphaherpesvirus 1 [14]) was “Active”, the Activity (Human alphaherpesvirus 1 [15]) was “Dose-Dependent Effect” and the Activity (Human alphaherpesvirus 2 [16]) was “Dose-Dependent Effect”. For the same compound, the EC50 (Human alphaherpesvirus 1 [9]) was 9.2 µM, the Activity (HEK-293T) was “Non-Toxic” and the EC50 (Human alphaherpesvirus 2 [10]) was 14.9 µM. The Activity (Human alphaherpesvirus 1 [17]) was “Active”, the Activity (Human alphaherpesvirus 1 [18]) was “inactive” and the Activity (Human alphaherpesvirus 1 [19]) was “Active”. The Activity (Human alphaherpesvirus 1 [20]) was “Active”, the Activity (Human alphaherpesvirus 1 [21]) was “Active” and the viability at 48 h, 80 µM [22] was 100%. The CC50 at 48 h [23] was > 100 µM, the Activity (Human alphaherpesvirus 1 [24]) was “Active” and the EC50 (Human alphaherpesvirus 2 [11]) was 11 µM. For the same compound, the Activity (Human alphaherpesvirus 1 [25]) was “inactive”, the Activity (Human alphaherpesvirus 1 [26]) was “Active” and the Activity (Human alphaherpesvirus 2 [27]) was “Active”. For the same compound, the Activity [2] was 91.6%, the Activity [3] was 56.2% and the Activity [4] was 555 nm. The Drug uptake [5] was “Active”, the Activity (Human alphaherpesvirus 1 [28]) was “Dose-Dependent Effect” and the Activity (Human alphaherpesvirus 1 [29]) was “Active”. The Activity (Human alphaherpesvirus 1 [30]) was “Active”, the Activity [6] was 558 nm and the Activity (Human alphaherpesvirus 1 [31]) was “Dose-Dependent Effect”. For the same compound, the Activity (Human alphaherpesvirus 1 [32]) was “Active”, the Activity (Human alphaherpesvirus 1 [33]) was “Active” and the Activity [7] was 515 nm. The Activity (Human alphaherpesvirus 1 [34]) was “inactive”, the Activity (Human alphaherpesvirus 1 [1]) was 39% and the Activity [8] was 54.4%.
Work on `N#Cc1c(F)c(F)c(C#N)c2c1NC1CCCCC1N2` (racemic) yielded an Activity (Human alphaherpesvirus 1 [1]) of 7%.
`Nc1nc2c(ncn2COCCO)c(=O)[nH]1` [ACYCLOVIR] showed an Activity (Human alphaherpesvirus 1 [35]) of 81%.
